Assay results taken from PubChem BioAssay AID190 (DTP/NCI, 2004).
Several values for one entry are separate records, joined by “and”; a condition that tells them apart may be missing. Identical values can stand only once. Inconclusive results and toxic doses are left out.

Test system: AKR/Lw mice, AKR lymphoma ip, median survival T/C
Assay: NCI In Vivo Anticancer Drug Screen. Data for tumor model Lymphoma AKR (Transplanted) (intraperitoneal) in AKR/Lw mice
Conditions: endpoint: median survival time, higher = longer survival
Experimental: The antitumor activity of compounds was measured in mice bearing transplantable tumors. Survival or tumor size were measured and the results are expressed as the measurement made in the treated group (T) divided by the measurement made in the vehicle treated control group (C). The tumor model used in this assay is Lymphoma AKR (Transplanted) (intraperitoneal) in AKR/Lw mice

[1] = dose: 6.0 mg/kg/injection, schedule: Q01DX009 (ip), vehicle: saline
[2] = dose: 100.0 mg/kg/injection, schedule: Q01DX001 (ip), vehicle: Klucel (hydroxypropylcellulose) (HPC)
[3] = dose: 200.0 mg/kg/injection, schedule: Q01DX001 (ip), vehicle: Klucel (hydroxypropylcellulose) (HPC)
[4] = dose: 400.0 mg/kg/injection, schedule: Q01DX001 (ip), vehicle: Klucel (hydroxypropylcellulose) (HPC)
[5] = dose: 25.0 mg/kg/injection, schedule: Q04DX003 (ip), vehicle: saline
[6] = dose: 50.0 mg/kg/injection, schedule: Q01DX001 (ip), vehicle: saline
[7] = dose: 50.0 mg/kg/injection, schedule: Q04DX003 (ip), vehicle: saline
[8] = dose: 100.0 mg/kg/injection, schedule: Q01DX001 (ip), vehicle: saline
[9] = dose: 200.0 mg/kg/injection, schedule: Q01DX001 (ip), vehicle: saline

O=P1(N(CCCl)CCCl)NCCCO1 (centres undefined)
T/C (dose: 0.5 mg/kg/injection, schedule: Q01DX015 (ip), vehicle: saline): 117 % of control | T/C (dose: 1.0 mg/kg/injection, schedule: Q01DX015 (ip), vehicle: saline): 108 % of control | T/C (dose: 1.5 mg/kg/injection, schedule: Q04DX003 (ip), vehicle: saline): 91 % of control | T/C (dose: 2.0 mg/kg/injection, schedule: Q01DX015 (ip), vehicle: saline): 108 % of control | T/C (dose: 2.0 mg/kg/injection, schedule: Q03HX032 (ip), vehicle: saline): 119 % of control | T/C (dose: 3.0 mg/kg/injection, schedule: Q04DX003 (ip), vehicle: saline): 93 % of control | T/C (dose: 3.1 mg/kg/injection, schedule: Q01DX009 (ip), vehicle: saline): 100 % of control and 102 % of control | T/C (dose: 4.0 mg/kg/injection, schedule: Q03HX032 (ip), vehicle: saline): 117 % of control | T/C [1]: 97 % of control | T/C (dose: 6.0 mg/kg/injection, schedule: Q04DX003 (ip), vehicle: saline): 93 % of control | T/C (dose: 6.2 mg/kg/injection, schedule: Q04DX003 (ip), vehicle: saline): 97 % of control | T/C (dose: 6.25 mg/kg/injection, schedule: Q07DX005 (ip), vehicle: saline): 112 % of control | T/C (dose: 7.0 mg/kg/injection, schedule: Q01DX015 (ip), vehicle: saline): 88 % of control | T/C (dose: 8.0 mg/kg/injection, schedule: Q03HX032 (ip), vehicle: saline): 112 % of control | T/C (dose: 10.0 mg/kg/injection, schedule: Q01DX009 (ip), vehicle: saline): 110 % of control and 118 % of control | T/C (dose: 11.0 mg/kg/injection, schedule: Q01DX015 (ip), vehicle: saline): 100 % of control | T/C (dose: 12.0 mg/kg/injection, schedule: Q04DX003 (ip), vehicle: saline): 97 % of control and 105 % of control | T/C (dose: 12.5 mg/kg/injection, schedule: Q01DX001 (ip), vehicle: saline): 92 % of control and 104 % of control and 116 % of control | T/C (dose: 20.0 mg/kg/injection, schedule: Q07DX004 (ip), vehicle: saline): 120 % of control | T/C (dose: 24.0 mg/kg/injection, schedule: Q01DX015 (ip), vehicle: saline): 100 % of control and 117 % of control | T/C (dose: 25.0 mg/kg/injection, schedule: Q07DX003 (ip), vehicle: saline): 152 % of control | T/C (dose: 25.0 mg/kg/injection, schedule: Q10DX002 (ip), vehicle: saline): 152 % of control | T/C (dose: 25.0 mg/kg/injection, schedule: Q10DX004 (ip), vehicle: saline): 119 % of control | T/C (dose: 25.0 mg/kg/injection, schedule: Q14DX003 (ip), vehicle: saline): 178 % of control | T/C (dose: 25.0 mg/kg/injection, schedule: Q14DX004 (ip), vehicle: saline): 103 % of control | T/C (dose: 33.0 mg/kg/injection, schedule: Q09DX002 (ip), vehicle: saline): 188 % of control | T/C (dose: 37.5 mg/kg/injection, schedule: Q12DX002 (ip), vehicle: saline): 172 % of control | T/C (dose: 44.0 mg/kg/injection, schedule: Q07DX004 (ip), vehicle: saline): 227 % of control | T/C (dose: 50.0 mg/kg/injection, schedule: Q09DX002 (ip), vehicle: saline): 160 % of control and 234 % of control (2×) | T/C (dose: 50.0 mg/kg/injection, schedule: Q10DX002 (ip), vehicle: saline): 186 % of control | T/C (dose: 50.0 mg/kg/injection, schedule: Q12DX002 (ip), vehicle: saline): 164 % of control | T/C (dose: 50.0 mg/kg/injection, schedule: Q14DX003 (ip), vehicle: saline): 177 % of control | T/C (dose: 50.0 mg/kg/injection, schedule: Q14DX004 (ip), vehicle: saline): 173 % of control | T/C (dose: 50.0 mg/kg/injection, schedule: Q## X002 (ip), vehicle: saline): 164 % of control | T/C (dose: 65.5 mg/kg/injection, schedule: Q04DX003 (ip), vehicle: saline): 236 % of control | T/C (dose: 67.0 mg/kg/injection, schedule: Q07DX004 (ip), vehicle: saline): 232 % of control | T/C (dose: 67.0 mg/kg/injection, schedule: Q09DX002 (ip), vehicle: saline): 234 % of control | T/C (dose: 75.0 mg/kg/injection, schedule: Q01DX001 (ip), vehicle: saline): 180 % of control and 226 % of control | T/C (dose: 75.0 mg/kg/injection, schedule: Q01DX001 (ip), vehicle: water): 153 % of control | T/C (dose: 75.0 mg/kg/injection, schedule: Q04DX003 (ip), vehicle: saline): 180 % of control | T/C (dose: 75.0 mg/kg/injection, schedule: Q07DX003 (ip), vehicle: saline): 200 % of control and 210 % of control and 231 % of control | T/C (dose: 75.0 mg/kg/injection, schedule: Q07DX005 (ip), vehicle: saline): 181 % of control | T/C (dose: 75.0 mg/kg/injection, schedule: Q12DX002 (ip), vehicle: saline): 226 % of control | T/C (dose: 100.0 mg/kg/injection, schedule: Q01DX001 (ip), vehicle: saline with Tween-80): 154 % of control | T/C (dose: 100.0 mg/kg/injection, schedule: Q01DX009 (ip), vehicle: saline): 112 % of control | T/C (dose: 100.0 mg/kg/injection, schedule: Q07DX004 (ip), vehicle: saline): 200 % of control | T/C (dose: 100.0 mg/kg/injection, schedule: Q07DX005 (ip), vehicle: saline): 95 % of control | T/C (dose: 100.0 mg/kg/injection, schedule: Q09DX002 (ip), vehicle: saline): 117 % of control and 228 % of control (2×) | T/C (dose: 100.0 mg/kg/injection, schedule: Q10DX004 (ip), vehicle: saline): 175 % of control | T/C (dose: 100.0 mg/kg/injection, schedule: Q14DX003 (ip), vehicle: saline): 235 % of control | T/C (dose: 125.0 mg/kg/injection, schedule: Q07DX003 (ip), vehicle: saline): 105 % of control and 110 % of control | T/C (dose: 150.0 mg/kg/injection, schedule: Q01DX001 (ip), vehicle: saline with Tween-80): 179 % of control | T/C (dose: 150.0 mg/kg/injection, schedule: Q01DX001 (ip), vehicle: water): 171 % of control and 196 % of control | T/C (dose: 150.0 mg/kg/injection, schedule: Q07DX005 (ip), vehicle: saline): 95 % of control | T/C (dose: 150.0 mg/kg/injection, schedule: Q10DX004 (ip), vehicle: saline): 209 % of control | T/C (dose: 200.0 mg/kg/injection, schedule: Q01DX009 (ip), vehicle: saline): 100 % of control | T/C (dose: 200.0 mg/kg/injection, schedule: Q09DX002 (ip), vehicle: saline): 103 % of control | T/C (dose: 200.0 mg/kg/injection, schedule: Q10DX002 (ip), vehicle: saline): 114 % of control | T/C (dose: 300.0 mg/kg/injection, schedule: Q01DX001 (ip), vehicle: water): 171 % of control and 188 % of control | T/C (dose: 500.0 mg/kg/injection, schedule: Q01DX001 (ip), vehicle: saline): 100 % of control

O=C(/C=C/c1cccc([N+](=O)[O-])c1)NCCBr
T/C [2]: 102 % of control | T/C [3]: 104 % of control | T/C [4]: 86 % of control

N=c1ccn2c(n1)OC1C(O)C(CO)OC12 (centres undefined)
T/C [1]: 105 % of control | T/C (dose: 6.2 mg/kg/injection, schedule: Q01DX009 (ip), vehicle: saline): 100 % of control | T/C (dose: 12.0 mg/kg/injection, schedule: Q01DX009 (ip), vehicle: saline): 105 % of control | T/C (dose: 12.5 mg/kg/injection, schedule: Q01DX009 (ip), vehicle: saline): 114 % of control and 120 % of control | T/C [5]: 100 % of control | T/C (dose: 37.5 mg/kg/injection, schedule: Q01DX009 (ip), vehicle: saline): 111 % of control | T/C [6]: 111 % of control | T/C [7]: 102 % of control | T/C [8]: 91 % of control and 117 % of control | T/C [9]: 105 % of control and 111 % of control | T/C (dose: 300.0 mg/kg/injection, schedule: Q01DX001 (ip), vehicle: saline): 123 % of control | T/C (dose: 300.0 mg/kg/injection, schedule: Q01DX009 (ip), vehicle: saline): 153 % of control | T/C (dose: 500.0 mg/kg/injection, schedule: Q01DX009 (ip), vehicle: saline): 105 % of control | T/C (dose: 600.0 mg/kg/injection, schedule: Q04DX003 (ip), vehicle: saline): 168 % of control

CN(C)C(C)(C)CNc1ccc(C(=O)O)cc1
T/C (dose: 25.0 mg/kg/injection, schedule: Q01DX001 (ip), vehicle: saline): 88 % of control | T/C [6]: 91 % of control and 95 % of control | T/C [8]: 97 % of control and 91 % of control

CC12CC3CC(C1)CC(C(=O)O)(C3)C2
T/C [5]: 97 % of control | T/C [7]: 102 % of control | T/C [8]: 100 % of control | T/C (dose: 100.0 mg/kg/injection, schedule: Q04DX003 (ip), vehicle: saline): 100 % of control | T/C [9]: 101 % of control | T/C (dose: 400.0 mg/kg/injection, schedule: Q01DX001 (ip), vehicle: saline): 108 % of control

COc1cc2c(cc1OC)C(C#N)C2 (centres undefined)
T/C [2]: 100 % of control | T/C [3]: 100 % of control | T/C [4]: 94 % of control
